In patent publication US9732044B2, “N-(pyrid-4-yl)amides and N-(pyrimidin-4-yl)amides and their pharmaceutical and cosmetic use” (GALDERMA RESEARCH & DEVELOPMENT, priority 2011, dated 2017):
Where two headings read alike, the source gives them in different places.

Columns and labels:
androgen receptor (AR) = androgen receptor (AR) (Homo sapiens (Human), UniProt P10275); assay: Androgen receptor transactivation test in PALM cell line (cross curves against methyl trienolone); assay type: cell-based
Experimental: This AR inhibiting activity was measured in a transactivation test by the dissociation constants KdR (rest), KdA (active), and Kdapp (apparent).
A compound may be said to be an AR inhibitor if it has a dissociation constant, Kdapp, of less than or equal to 1 μM, and a KdR/KdA ratio of less than or equal to 10 in a transactivation test.
The transactivation test is carried out in the cell line PALM (PC3 androgen receptor Luciferase MMTV), which is a stable transfectant containing the plasmids PMMTV-neo-Luc (reporter gene) and pSG5puro-AR.
In this study, the affinity of each test compound for the 2 states of the receptor (KdR and KdA) is determined together with the apparent Kd (KdApp). This constant depends upon the 2 Kd's (KdR and KdA), but also depends on the initial equilibrium of the receptor between the active state and rest state (L0) and on its expression rate. It is determined by the following formula: 1/KdApp=(L0/(1+L0))×(1/KdR)+(1/(1+L0))×(1/KdA)
In order to determine these constants, “cross curves” of the test compound against a reference agonist, methyl trienolone, are carried out on a 96-well plate. The test compound is used in 10 concentrations and the reference agonist in 7 concentrations.

[1] = system: sebaceous gland of the ear of a Syrian hamster; assay: In vivo animal model with reduction in the size of the sebaceous glands (Syrian hamster ear); conditions: 1 g %/mL solution, topical on ear, daily for 24 days, compared to control (absolute ethanol)
Source text: The model of the sebaceous gland of the ear of a Syrian hamster described by Plewig and Luderschmidt in J. Inv. Derm., (1977), pp. 171-176 is a classical tool for the in vivo study of the function of the sebaceous gland. In fact, the inner faces of the ear lobes of the hamster contain a high number of sebaceous glands described as being similar to those of human sebaceous follicles in terms of certain characteristics, including their morphology and response to androgens and anti-androgens. In fact the growth and lipogenesis of the sebaceous glands on the inner face of the ear of Syrian hamsters depend on the androgens. The anti-androgenic activity of test compounds can be easily evaluated by measuring the size of the sebaceous glands. Moreover, this model has been selected to evaluate the efficacy of the antagonists of the receptor to the androgens on the sebaceous gland.
Test compounds were evaluated according to the following protocol: male hamsters aged weeks were treated daily for 24 days on the inner face of the right ear with 30 μL of a solution of the test compound to be evaluated in absolute ethanol. For each test compound, groups were treated with solutions at a range of concentrations (e.g., from 0.01 g %/mL to 3 g %/mL), as well as absolute ethanol used as a control. (A concentration of 3 g %/mL means a concentration of 0.03 g/mL.)
At the end of the study, samples were taken from the treated ears. The skin of the inner face of the ear was separated from the cartilage. Under a binocular magnifying glass, two zones of 4 mm^2 were numbered. The size of the sebaceous glands was measured on the numerical images by manually trimming the glands by means of image analysis software (TINA.20). For each image some twenty glands were measured. The average area of the sebaceous glands was calculated for each treatment group.
A Student t-test for independent groups comparing each dose with vehicle was carried out to compare the average size of the sebaceous glands as a function of the doses applied. When the evolution of the effect is represented graphically as a function of the administered dose of test compound, the curve obtained is sigmoid in shape. In the median part, this sigmoid may be likened to a straight line. The dose corresponding to 50% of the maximum effect corresponds graphically to the point located in the centre of the linear section defined as “effective dose 50”. This DE50 characterises the potency of the test compound.

[2] = threshold lists, PALM cells, read-out: Kdapp

Chain of androgen receptor (AR) (P10275 whole entry): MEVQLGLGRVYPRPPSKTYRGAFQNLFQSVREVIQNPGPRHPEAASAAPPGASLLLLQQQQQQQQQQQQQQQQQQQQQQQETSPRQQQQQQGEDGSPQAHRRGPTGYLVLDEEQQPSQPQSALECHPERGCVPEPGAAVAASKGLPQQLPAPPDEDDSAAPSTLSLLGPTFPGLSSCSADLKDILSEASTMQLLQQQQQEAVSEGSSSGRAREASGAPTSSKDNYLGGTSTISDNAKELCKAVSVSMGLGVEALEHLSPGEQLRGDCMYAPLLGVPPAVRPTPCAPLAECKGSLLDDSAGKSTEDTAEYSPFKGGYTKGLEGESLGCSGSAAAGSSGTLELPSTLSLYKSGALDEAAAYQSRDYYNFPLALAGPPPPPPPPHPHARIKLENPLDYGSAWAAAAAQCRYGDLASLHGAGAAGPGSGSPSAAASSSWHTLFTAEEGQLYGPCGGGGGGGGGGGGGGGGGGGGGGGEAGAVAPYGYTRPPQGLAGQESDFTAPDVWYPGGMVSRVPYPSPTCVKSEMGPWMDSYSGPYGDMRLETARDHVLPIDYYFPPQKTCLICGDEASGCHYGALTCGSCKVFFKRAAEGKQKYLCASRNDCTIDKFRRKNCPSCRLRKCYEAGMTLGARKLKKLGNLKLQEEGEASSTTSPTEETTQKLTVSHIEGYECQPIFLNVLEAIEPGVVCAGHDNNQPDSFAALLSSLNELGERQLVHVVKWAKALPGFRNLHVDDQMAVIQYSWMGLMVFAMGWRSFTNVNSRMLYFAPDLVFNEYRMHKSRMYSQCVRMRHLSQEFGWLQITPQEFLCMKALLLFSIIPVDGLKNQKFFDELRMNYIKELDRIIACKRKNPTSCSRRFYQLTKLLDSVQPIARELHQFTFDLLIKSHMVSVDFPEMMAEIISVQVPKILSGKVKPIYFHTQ

Row | Kd (androgen receptor (AR); [2]) | Structure (SMILES) | Reduction of sebaceous glands (following treatment at 1 g %/mL) [1] | Kd (androgen receptor (AR); Kdapp, threshold lists, PALM cells) | Kd (androgen receptor (AR); apparent dissociation constant, PALM cells (PC3 androgen receptor Luciferase MMTV), read-out: Kdapp)
1 | ≤ 30 nM | COc1cc(NC(=O)C(C)(O)C(C)C)cc(Br)n1 (centres unmarked) [Compound 76A, N-(2-Bromo-6-methoxy-pyridin-4-yl)-2-hydroxy-2,3-dimethyl-butyramide] | 58% |  | 
2 | ≤ 100 nM | CCCCC(C)(O)C(=O)Nc1ccnc(Br)c1 (single isomer, unassigned) [Compound 80A, 2-Hydroxy-2-methyl-hexanoic acid (2-bromo-pyridin-4-yl)-amide] | 51% |  | 

The next lines start with the compound.

Row | Structure (SMILES) | Kd (androgen receptor (AR); [2]) | Reduction of sebaceous glands (following treatment at 1 g %/mL) [1] | Kd (androgen receptor (AR); Kdapp, threshold lists, PALM cells) | Kd (androgen receptor (AR); apparent dissociation constant, PALM cells (PC3 androgen receptor Luciferase MMTV), read-out: Kdapp)
3 | CCCCC(C)(O)C(=O)Nc1cc(Br)nc(OC)c1 (centres unmarked) [Compound 72B, 2-Hydroxy-2-methyl-hexanoic acid (2-bromo-6-methoxy-pyridin-4-yl)-amide] | ≤ 100 nM | 46% |  | 
4 | CC(O)(CCc1ccccc1)C(=O)Nc1ccnc(Br)c1 (centres unmarked) [Compound 43, N-(2-Bromo-pyridin-4-yl)-2-hydroxy-2-methyl-4-phenyl-butyramide] |  | 44% | ≤ 100 nM | 100 nM
5 | CCCC(O)(CC)C(=O)Nc1cc(Br)nc(OC)c1 (centres unmarked) [Compound 19, 2-Ethyl-2-hydroxy-pentanoic acid (2-bromo-6-methoxy-pyridin-4-yl)-amide] | ≤ 30 nM | 61% |  | 
